In patent publication US20220348558A1, “INHIBITORS OF ENCEPHALITIC ALPHAVIRUSES” (priority 2019, published 2022):

Experiments:
VEEV TC83 = experiment: microbe, parasite or virus in culture; format: cell-based; conditions: Venezuelan equine encephalitis virus, Vero 76, 48 h, read-out: VEEV TC83 EC50 nM
WEEV California = experiment: microbe, parasite or virus in culture; format: cell-based; conditions: Western equine encephalitis virus, Vero 76, 48 h, read-out: WEEV California EC50 nM

SMILES	EC50 (VEEV TC83)	EC50 (WEEV California)
COc1ccc(-n2c([C@H]3CCCN3)nc3c(-c4cncnc4)cc([N+](=O)[O-])cc3c2=O)cc1 [Example 87, (R)-3-(4-methoxyphenyl)-6-nitro-8-(pyrimidin-5-yl)-2-(pyrrolidin-2-yl) quinazolin-4 (3H)-one]	1 to 50 nM	1 to 50 nM
O=c1c2cc([N+](=O)[O-])ccc2nc([C@H]2CCCN2C2CCOCC2)n1-c1ccccc1 [Example 3, (R)-6-nitro-3-phenyl-2-(1-(tetrahydro-2H-pyran-4-yl)pyrrolidin-2-yl) quinazolin-4 (3H)-one]	501 to 1000 nM	> 1000 nM
COc1ccc(-n2c([C@H]3C[C@H](O)CN3)nc3c(-c4ccc(C)nc4)cc(C#N)cc3c2=O)cc1F [Example 122, 3-(3-fluoro-4-methoxyphenyl)-2-((2R,4S)-4-hydroxypyrrolidin-2-yl)-8-(6-methylpyridin-3-yl)-4-oxo-3,4-dihydroquinazoline-6-carbonitrile]	1 to 50 nM	51 to 150 nM
N#Cc1cc(-c2ccc(C(F)(F)F)nc2)c2nc([C@H]3CCCN3)n(-c3ccc(O)c(F)c3)c(=O)c2c1 [Example 168, (R)-3-(3-fluoro-4-hydroxyphenyl)-4-oxo-2-(pyrrolidin-2-yl)-8-(6-(trifluoromethyl)pyridin-3-yl)-3,4-dihydroquinazoline-6-carbonitrile]	51 to 150 nM	151 to 500 nM
O=c1c2cc([N+](=O)[O-])ccc2nc([C@H]2CCCN2)n1-c1cccc(OC(F)(F)F)c1 [Example 45, (R)-6-nitro-2-(pyrrolidin-2-yl)-3-(3-(trifluoromethoxy)phenyl)quinazolin-4 (3H)-one]	> 1000 nM	> 1000 nM
O=c1c2cc([N+](=O)[O-])ccc2nc([C@@H]2CCCN2C2CCOCC2)n1-c1ccccc1 [Example 6, (S)-6-nitro-3-phenyl-2-(1-(tetrahydro-2H-pyran-4-yl)pyrrolidin-2-yl)quinazolin-4 (3H)-one]	501 to 1000 nM	> 1000 nM
COc1ccc(-n2c(C3CCCN3Cc3ccc(F)cc3)nc3c(C)cc([N+](=O)[O-])cc3c2=O)cc1F (stereo not drawn) [Example 204, 3-(3-fluoro-4-methoxyphenyl)-2-(1-(4-fluorobenzyl)pyrrolidin-2-yl)-8-methyl-6-nitroquinazolin-4 (3H)-one]	51 to 150 nM	151 to 500 nM
O=c1c2cc([N+](=O)[O-])ccc2nc(C2CCN2)n1-c1ccccc1 (stereo not drawn) [Example 27, 2-(azetidin-2-yl)-6-nitro-3-phenylquinazolin-4 (3H)-one]	501 to 1000 nM	> 1000 nM
COc1ccc(-n2c([C@@H]3CCCN3)nc3c(C(F)(F)F)cc(C#N)cc3c2=O)cc1F [Example 77, (S)-3-(3-fluoro-4-methoxyphenyl)-4-oxo-2-(pyrrolidin-2-yl)-8-(trifluoromethyl)-3,4-dihydroquinazoline-6-carbonitrile]	51 to 150 nM	1 to 50 nM
COc1ccc(-n2c([C@H]3CCCN3)nc3c(-c4ccc(C(F)(F)F)nc4)cc([N+](=O)[O-])cc3c2=O)cc1F [Example 91, (R)-3-(3-fluoro-4-methoxyphenyl)-6-nitro-2-(pyrrolidin-2-yl)-8-(6-(trifluoromethyl)pyridin-3-yl) quinazolin-4 (3H)-one]	1 to 50 nM	1 to 50 nM
COc1ccc(-n2c([C@H]3CCCN3)nc3c(-c4cncnc4)cc(C#N)cc3c2=O)cc1F [Example 105, (R)-3-(3-fluoro-4-methoxyphenyl)-4-oxo-8-(pyrimidin-5-yl)-2-(pyrrolidin-2-yl)-3,4-dihydroquinazoline-6-carbonitrile]	51 to 150 nM	151 to 500 nM
COc1ccc(-n2c([C@H]3CCCN3C3COC3)nc3ccc([N+](=O)[O-])cc3c2=O)cc1 [Example 11, (R)-3-(4-methoxyphenyl)-6-nitro-2-(1-(oxetan-3-yl)pyrrolidin-2-yl) quinazolin-4 (3H)-one]	51 to 150 nM	501 to 1000 nM
